Measurements reported in patent US20030129222A1, “Liposomal imexon” (priority 2000, published 2003).
Structures can show the parent of a compound that is named as a salt. Where two headings read alike, the source gives them in different places. Starred links: 1 amine or outer side, 2 acyl side, 3 side chain; linkers in the order of their positions; H or OH if unused. Positions of bridges follow the written chain, without caps; N, C: chain ends. Non-standard residues stand in square brackets, D forms with d. Residues, ends and D or L forms follow the SMILES beside them. Chains are numbered I, II in the order given. Actinocin(9to1) = Cc1c2oc3c(C)ccc(C(=O)[*:1])c3nc-2c(C(=O)[*:2])c(N)c1=O; NMeV = CN[C@H](C(=O)O)C(C)C; Sar = CNCC(=O)O

Experiments:
[1] = cited from earlier work
WiDr colon, res = assay: Cytotoxicity in tumor cell culture, SRB assay; assay type: cell-based; details: multidrug-resistant; read-out: IC50 against human mouse tumors, WiDr colon res
Excerpt: (§1) Relative potencies of the N-substituted 2-cyanoaziridine-1-carboxamides in a panel of tumor cell cultures are compared in Table 3. This panel includes the following lines of human tumor cells: sensitive and imexon-resistant lines of multiple myeloma (Matsuoka et al., 1967); ovarian carcinoma resistant to standard drugs (Hamilton et al., 1984); melanoma with a slow growth fraction (Girard et al., 1973); breast carcinoma including sensitive, doxorubicin-resistant (P-glycoprotein-positive) (Taylor et al., 1991), and mitoxantrone-resistant (P-glycoprotein-negative) (Futscher et al., 1994) lines; sensitive and multidrug-resistant colon carcinoma (Noguchi et al., 1979; Dalton et al., 1988); and multidrug-resistant lung carcinoma (P-glycoprotein-negative) (Girard et al., 1973). It also has sensitive (Goldin et al., 1961) and multidrug-resistant (P-glycoprotein-positive) (Salmon and Hersh, 1994) murine L1210 leukemia cells.

[2] = system: 8226 myeloma, Res (imexon-resistant); assay: Cytotoxicity in tumor cell culture, SRB assay; assay type: cell-based; details: line made resistant to imexon; read-out: IC50 against human mouse tumors, 8226 myeloma Res
Excerpt: as §1

WiDr colon, Sens = assay: Cytotoxicity in tumor cell culture, SRB assay; assay type: cell-based; details: read-out: IC50 against human mouse tumors, WiDr colon Sens
Excerpt: as §1

[3] = system: MCF7 breast, Dox (doxorubicin-resistant); assay: Cytotoxicity in tumor cell culture, SRB assay; assay type: cell-based, human; details: doxorubicin-resistant; read-out: IC50 against human mouse tumors, MCF7 breast Dox
Excerpt: as §1

A375 melan = assay: Cytotoxicity in tumor cell culture, SRB assay; assay type: cell-based, human; details: read-out: IC50 against human mouse tumors, A375 melan
Excerpt: as §1

[4] = system: 8226 myeloma, Sens (drug-sensitive); assay: Cytotoxicity in tumor cell culture, SRB assay; assay type: cell-based, human
Excerpt: as §1

MCF7 breast, Sens = assay: Cytotoxicity in tumor cell culture, SRB assay; assay type: cell-based, human; details: read-out: IC50 against human mouse tumors, MCF7 breast Sens
Excerpt: as §1

OVCAR3 ovarian = assay: Cytotoxicity in tumor cell culture, SRB assay; assay type: cell-based, human; details: read-out: IC50 against human mouse tumors, OVCAR3 ovarian
Excerpt: as §1

[5] = system: MCF7 breast, mitox (mitoxantrone-resistant); assay: Cytotoxicity in tumor cell culture, SRB assay; assay type: cell-based, human; details: mitoxantrone-resistant; read-out: IC50 against human mouse tumors, MCF7 breast mitox
Excerpt: as §1

A-549 lung = assay: Cytotoxicity in tumor cell culture, SRB assay; assay type: cell-based, human; details: read-out: IC50 against human mouse tumors, A-549 lung
Excerpt: as §1

L1210 leukemia, Mdr = assay: Cytotoxicity in tumor cell culture, MTT assay; assay type: cell-based, murine; details: MTT assay, multidrug-resistant; read-out: IC50 against human mouse tumors, L1210 leukemia Mdr
Excerpt: as §1

L1210 leukemia, Sens = assay: Cytotoxicity in tumor cell culture, MTT assay; assay type: cell-based, murine; details: MTT assay; read-out: IC50 against human mouse tumors, L1210 leukemia Sens
Excerpt: as §1

[6] = substituent constant, from Hansch and Leo or calculated using Clog P software; cited from earlier work
[7] = single oral doses of about 0.6 mg/kg to about […]
[8] = against sensitive myeloma, values repeated from Table 3 (μM there), read-out: IC50
[9] = drug-sensitive line, read-out: IC50 against human mouse tumors, 8226 myeloma Sens
[10] = intravenous injection, after distribution

| Structure (SMILES) | oral absorption ([1]; in vivo) | IC50 (WiDr colon, res) [µM] | IC50 [2] [µM] | IC50 (WiDr colon, Sens) [µM] | IC50 [3] [µM] | IC50 (A375 melan) [µM] | Log(1/C) ([4]; against sensitive myeloma) | IC50 [4, 8] [µM] | IC50 [4, 9] [µM] | IC50 (MCF7 breast, Sens) [µM] | IC50 (OVCAR3 ovarian) [µM] | IC50 [5] [µM] | IC50 (A-549 lung) [µM] | IC50 (L1210 leukemia, Mdr) [µM] | IC50 (L1210 leukemia, Sens) [µM] | π [6] | also measured |
| --- | --- | --- | --- | --- | --- | --- | --- | --- | --- | --- | --- | --- | --- | --- | --- | --- | --- |
| Cc1c2oc3c(C)ccc(C(=O)N[C@@H]4C(=O)N[C@H](C(C)C)C(=O)N5CCC[C@H]5C(=O)N(C)CC(=O)N(C)[C@@H](C(C)C)C(=O)O[C@@H]4C)c3nc-2c(C(=O)N[C@@H]2C(=O)N[C@H](C(C)C)C(=O)N3CCC[C@H]3C(=O)N(C)CC(=O)N(C)[C@@H](C(C)C)C(=O)O[C@@H]2C)c(N)c1=O [Actinomycin D] (I: T[dV]P[Sar][NMeV] / II: T[dV]P[Sar][NMeV]; ester I:1-I:C, II:1-II:C; linker I:N-II:N via Actinocin(9to1)) | – | – | – | – | – | – | – | – | – | – | – | – | – | – | – | – | dose excreted intact into the bile ([1]; in vivo): Half; dose excreted intact into the urine ([1]; in vivo): 10%; half-life ([1]; in vivo): about 36 hours; passage of the blood-brain barrier ([1]; in vivo): does not pass the blood-brain barrier |
| O=C(O)CCCc1ccc(N(CCCl)CCCl)cc1 [Chlorambucil, 4-[bis(2-chlorethyl)amino] benzenebutanoic acid] | rapidly and completely absorbed | – | – | – | – | – | – | – | – | – | – | – | – | – | – | – | terminal half-life of the parent drug [1, 7]: about 1.5 hours; time to peak plasma chlorambucil levels [1, 7]: one |
| N.N.[Cl][Pt][Cl] [Cisplatin] | not absorbed orally | – | – | – | – | – | – | – | – | – | – | – | – | – | – | – | – |
| CCNC(=O)N1CC1C#N (stereo not shown) [Compound 7, 2-Cyanoaziridine-1-(N-ethyl) carboxamide] | – | 7 | 26 | 4 | 20 | 36 | 4.66 | 22 | 22 | 29 | 14 | 10 | 18 | 14 | 14 | 1.02 | – |
| CCCCNC(=O)N1CC1C#N (stereo not shown) [Compound 8, 2-Cyanoaziridine-1-(N-butyl) carboxamide] | – | 18 | 17 | 14 | 6.7 | 15 | 4.77 | 17 | 17 | > 12 | 12 | > 12 | 18 | 12 | 12 | 2.00 | – |
| CC(C)(C)NC(=O)N1CC1C#N (stereo not shown) [Compound 9, 2-Cyanoaziridine-1-(N-t-butyl) carboxamide] | – | > 300 | 216 | 180 | 190 | 418 | 3.92 | 120 | 120 | > 300 | 186 | 120 | 180 | 457 | 132 | 1.98 | – |
| N#CC1CN1C(=O)NC1CCCCC1 (stereo not shown) [Compound 10, 2-Cyanoaziridine-1-(N-cyclohexyl) carboxamide] | – | 12 | 98 | 2.4 | 8.9 | 35 | 4.44 | 36 | 36 | 13 | 31 | 9.8 | 10 | 16 | 7.4 | 2.51 | – |
| N#CC1CN1C(=O)NCc1ccccc1 (stereo not shown) [Compound 11, 2-Cyanoaziridine-1-(N-benzyl) carboxamide] | – | 10 | 11 | 5.3 | 6 | 11 | 5.05 | 9 | 9 | 7.4 | 5 | 3.4 | 7.4 | 10 | 3.8 | 2.50 | – |
| CCOC(=O)CNC(=O)N1CC1C#N (stereo not shown) [Compound 12] | – | 33 | 30 | 31 | 17 | 51 | 4.60 | 25 | 25 | 15 | – | 11 | 24 | 13 | 13 | 1.01 | – |
| CCOC(=O)c1ccc(NC(=O)N2CC2C#N)cc1 (stereo not shown) [Compound 19, 2-Cyanoaziridine-1-[N-(4-ethoxycarbonylphenyl)]carboxamide] | – | 4.2 | 3 | 2.5 | 2.1 | 5.8 | – | – | 3 | 2.3 | 7.7 | 3.3 | 2.9 | 9.7 | 9.7 | – | – |
| CC(=O)c1cccc(NC(=O)N2CC2C#N)c1 (stereo not shown) [Compound 20, 2-Cyanoaziridine-1-[N-(3-acetylphenyl)]carboxamide] | – | > 41 | > 39 | 40 | > 16 | > 39 | – | – | > 39 | > 16 | > 39 | > 16 | > 41 | > 39 | > 39 | – | – |
| N#CC1CN1C(=O)Nc1ccc(S(N)(=O)=O)cc1 (stereo not shown) [Compound 22, 2-Cyanoaziridine-1-[N-(4-sulfamylphenyl)]carboxamide] | – | > 38 | > 38 | > 38 | > 15 | 188 | – | – | > 38 | > 15 | 188 | > 15 | > 38 | > 38 | > 38 | – | – |
| COc1cccc2c1C(=O)c1c(O)c3c(c(O)c1C2=O)C[C@@](O)(C(C)=O)C[C@@H]3O[C@H]1C[C@H](N)[C@H](O)[C@H](C)O1 [Daunorubicin, 5,12-Naphthacenedione, (8S-cis)-8-acetyl-10-[(3-amino-2,3,6-trideoxy-a-L-lyxo-hexanopyranosyl)oxy]-7,8,9,10-tetrahydro-6,8,11-trihydroxy-10-methoxy-, hydrochloride] | poor | – | – | – | – | – | – | – | – | – | – | – | – | – | – | – | half-life of elimination ([1]; in vivo): about 19 hours |
| COc1cccc2c1C(=O)c1c(O)c3c(c(O)c1C2=O)C[C@@](O)(C(=O)CO)C[C@@H]3O[C@H]1C[C@H](N)[C@H](O)[C@H](C)O1 [Doxorubicin, 5,12-Naphthacenedione, (8s-cis)-10-[(3-amino-2,3,6-trideoxy-a-L-lyxo-hexopyranosyl)oxy]-7,8,9,10-tetrahydro-6,8,11-trihydroxy-8-(hydroxyacetyl)-1-methoxy-hydrochloride] | absorbed poorly | – | – | – | – | – | – | – | – | – | – | – | – | – | – | – | elimination half-life ([1]; in vivo): about 30 hours |
| O=NN(CCCl)C(=O)NC1CCCCC1 [Lomustine, 1-(2-chloro-ethyl)-3-cyclohexyl-1 nitrosourea] | – | – | – | – | – | – | – | – | – | – | – | – | – | – | – | – | radioactivity excreted in the form of degradation products within 24 hours ([1]; oral radioactive lomustine, about 30 mg/m^2 to 100 mg/m^2): about half |
| CC[C@]1(O)C[C@@H]2CN(CCc3c([nH]c4ccccc34)[C@@](C(=O)OC)(c3cc4c(cc3OC)N(C)[C@H]3[C@@](O)(C(=O)OC)[C@H](OC(C)=O)[C@]5(CC)C=CCN6CC[C@]43[C@@H]65)C2)C1 [Vinblastine] | Unpredictable absorption | – | – | – | – | – | – | – | – | – | – | – | – | – | – | – | dose recovered in the feces after biliary excretion ([1]; in vivo): about 10%; plasma half-life, first [1, 10]: approximately 1 hours; plasma half-life, second [1, 10]: ~20 h |
| CC[C@]1(O)C[C@H]2CN(CCc3c([nH]c4ccccc34)[C@@](C(=O)OC)(c3cc4c(cc3OC)N(C=O)[C@H]3[C@@](O)(C(=O)OC)[C@H](OC(C)=O)[C@]5(CC)C=CCN6CC[C@]43[C@@H]65)C2)C1 [Vincristine] | Unpredictable absorption | – | – | – | – | – | – | – | – | – | – | – | – | – | – | – | terminal half-life ([1]; plasma): about 24 hours |
| COc1cccc2c1C(=O)c1c(O)c3c(c(O)c1C2=O)C[C@@](O)([C@H](C)O)C[C@@H]3O[C@H]1C[C@H](N)[C@H](O)[C@H](C)O1 [daunorubicinol] | – | – | – | – | – | – | – | – | – | – | – | – | – | – | – | – | half-life of active metabolite ([1]; metabolite of daunorubicin): about 27 hours |
